Reference: the NIST ThermoML archive (doi:10.1016/j.tca.2014.06.017)
± gives the expanded uncertainty stated by the source.

Settings: Crystal; DTA

OC[C@@H](O)[C@@H](O)[C@H](O)[C@H](O)CO [D-mannitol]
Normal melting temperature: 162 ± 11 °C
